# Test results as given in the supplement of paper PMC10307832.
# What was measured:
# Experiment in all cases: relative viability (nuclei count vs DMSO), 5 days (fraction); higher = more cells survive
# 201T = system: 201T
# How it was run: (§1)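 Lung cancer cell lines in 1536-well plates were dosed by pin tool the day after seeding, either with one drug alone or with a fixed anchor-drug dose plus five library-drug doses (not always all listed) in √10 steps. After 5 days, cells were fixed and their nuclei stained in one step (final 0.05% Triton X-100, 1% formaldehyde, 1 ug/ml Hoechst), then counted on 4× images. Relative viability is the nuclei count in treated wells divided by that in vehicle wells. Values are medians of duplicate plates.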
# BEN = system: BEN
# How it was run: as §1
# CAL-12T = system: CAL-12T
# How it was run: as §1
# COR-L 105 = system: COR-L 105
# How it was run: as §1
# EKVX = system: EKVX
# How it was run: as §1
# HARA = system: HARA
# How it was run: as §1
# HCC-366 = system: HCC-366
# How it was run: as §1
# LK-2 = system: LK-2
# How it was run: as §1
# LOU-NH91 = system: LOU-NH91
# How it was run: as §1
# NCI-H1437 = system: NCI-H1437
# How it was run: as §1
# NCI-H1650 = system: NCI-H1650
# How it was run: as §1
# NCI-H1666 = system: NCI-H1666
# How it was run: as §1
# NCI-H2009 = system: NCI-H2009
# How it was run: as §1
# NCI-H2170 = system: NCI-H2170
# How it was run: as §1
# NCI-H3122 = system: NCI-H3122
# How it was run: as §1
# NCI-H441 = system: NCI-H441
# How it was run: as §1
# NCI-H460 = system: NCI-H460
# How it was run: as §1
# NCI-H727 = system: NCI-H727
# How it was run: as §1
# PC-14 = system: PC-14
# How it was run: as §1
smiles,measurement,setting,value
Cc1sc2c(c1C)C(c1ccc(Cl)cc1)=N[C@@H](CC(=O)OC(C)(C)C)c1nnc(C)n1-2 [JQ1] + CC1(C)CCC(c2ccc(Cl)cc2)=C(CN2CCN(c3ccc(C(=O)NS(=O)(=O)c4ccc(N[C@H](CCN5CCOCC5)CSc5ccccc5)c(S(=O)(=O)C(F)(F)F)c4)cc3)CC2)C1 [Navitoclax] (partner 0.5 µM),relative viability,201T; first compound 0.04 µM,1.23
same,relative viability,201T; first compound 0.1265 µM,0.977
same,relative viability,201T; first compound 0.4 µM,1.15
same,relative viability,201T; first compound 1.265 µM,0.842
same,relative viability,201T; first compound 4 µM,0.618
same,relative viability,BEN; first compound 0.04 µM,0.0812
same,relative viability,BEN; first compound 0.1265 µM,0.082
same,relative viability,BEN; first compound 0.4 µM,0.0765
same,relative viability,BEN; first compound 1.265 µM,0.0678
same,relative viability,BEN; first compound 4 µM,0.0582
same,relative viability,CAL-12T; first compound 0.04 µM,1.12
same,relative viability,CAL-12T; first compound 0.1265 µM,1.29
same,relative viability,CAL-12T; first compound 0.4 µM,0.701
same,relative viability,CAL-12T; first compound 1.265 µM,0.295
same,relative viability,CAL-12T; first compound 4 µM,0.408
same,relative viability,COR-L 105; first compound 0.04 µM,0.707
same,relative viability,COR-L 105; first compound 0.1265 µM,0.567
same,relative viability,COR-L 105; first compound 0.4 µM,0.462
same,relative viability,COR-L 105; first compound 1.265 µM,0.282
same,relative viability,COR-L 105; first compound 4 µM,0.326
same,relative viability,EKVX; first compound 0.04 µM,0.945
same,relative viability,EKVX; first compound 0.1265 µM,0.827
same,relative viability,EKVX; first compound 0.4 µM,0.96
same,relative viability,EKVX; first compound 1.265 µM,0.802
same,relative viability,EKVX; first compound 4 µM,0.685
same,relative viability,HARA; first compound 0.04 µM,1.11
same,relative viability,HARA; first compound 0.1265 µM,1
same,relative viability,HARA; first compound 0.4 µM,0.781
same,relative viability,HARA; first compound 1.265 µM,0.261
same,relative viability,HARA; first compound 4 µM,0.234
same,relative viability,HCC-366; first compound 0.04 µM,1.05
same,relative viability,HCC-366; first compound 0.4 µM,0.915
same,relative viability,HCC-366; first compound 1.265 µM,0.63
same,relative viability,HCC-366; first compound 4 µM,0.115
same,relative viability,LK-2; first compound 0.04 µM,0.89
same,relative viability,LK-2; first compound 0.1265 µM,0.785
same,relative viability,LK-2; first compound 0.4 µM,0.562
same,relative viability,LK-2; first compound 1.265 µM,0.255
same,relative viability,LK-2; first compound 4 µM,0.243
same,relative viability,LOU-NH91; first compound 0.04 µM,0.637
same,relative viability,LOU-NH91; first compound 0.1265 µM,0.606
same,relative viability,LOU-NH91; first compound 0.4 µM,0.413
same,relative viability,LOU-NH91; first compound 1.265 µM,0.411
same,relative viability,LOU-NH91; first compound 4 µM,0.429
same,relative viability,NCI-H1437; first compound 0.04 µM,1.03
same,relative viability,NCI-H1437; first compound 0.1265 µM,0.798
same,relative viability,NCI-H1437; first compound 0.4 µM,0.693
same,relative viability,NCI-H1437; first compound 1.265 µM,0.325
same,relative viability,NCI-H1437; first compound 4 µM,0.306
same,relative viability,NCI-H1650; first compound 0.04 µM,1.09
same,relative viability,NCI-H1650; first compound 0.1265 µM,0.998
same,relative viability,NCI-H1650; first compound 0.4 µM,0.655
same,relative viability,NCI-H1650; first compound 1.265 µM,0.24
same,relative viability,NCI-H1650; first compound 4 µM,0.169
same,relative viability,NCI-H1666; first compound 0.04 µM,0.926
same,relative viability,NCI-H1666; first compound 0.1265 µM,0.899
same,relative viability,NCI-H1666; first compound 0.4 µM,0.787
same,relative viability,NCI-H1666; first compound 1.265 µM,0.438
same,relative viability,NCI-H1666; first compound 4 µM,0.513
same,relative viability,NCI-H2009; first compound 0.04 µM,1.2
same,relative viability,NCI-H2009; first compound 0.1265 µM,0.938
same,relative viability,NCI-H2009; first compound 0.4 µM,0.837
same,relative viability,NCI-H2009; first compound 1.265 µM,0.359
same,relative viability,NCI-H2009; first compound 4 µM,0.388
same,relative viability,NCI-H2170; first compound 0.04 µM,0.652
same,relative viability,NCI-H2170; first compound 0.1265 µM,0.641
same,relative viability,NCI-H2170; first compound 0.4 µM,0.452
same,relative viability,NCI-H2170; first compound 1.265 µM,0.279
same,relative viability,NCI-H2170; first compound 4 µM,0.285
same,relative viability,NCI-H3122; first compound 0.04 µM,1.01
same,relative viability,NCI-H3122; first compound 0.1265 µM,1.01
same,relative viability,NCI-H3122; first compound 0.4 µM,1.07
same,relative viability,NCI-H3122; first compound 1.265 µM,0.552
same,relative viability,NCI-H3122; first compound 4 µM,0.511
same,relative viability,NCI-H441; first compound 0.04 µM,0.834
same,relative viability,NCI-H441; first compound 0.1265 µM,0.684
same,relative viability,NCI-H441; first compound 0.4 µM,0.54
same,relative viability,NCI-H441; first compound 1.265 µM,0.528
same,relative viability,NCI-H441; first compound 4 µM,0.408
same,relative viability,NCI-H460; first compound 0.04 µM,1.02
same,relative viability,NCI-H460; first compound 0.1265 µM,0.671
same,relative viability,NCI-H460; first compound 0.4 µM,0.499
same,relative viability,NCI-H460; first compound 1.265 µM,0.0782
same,relative viability,NCI-H460; first compound 4 µM,0.0465
same,relative viability,NCI-H727; first compound 0.04 µM,0.436
same,relative viability,NCI-H727; first compound 0.1265 µM,0.453
same,relative viability,NCI-H727; first compound 0.4 µM,0.291
same,relative viability,NCI-H727; first compound 1.265 µM,0.209
same,relative viability,NCI-H727; first compound 4 µM,0.252
same,relative viability,PC-14; first compound 0.04 µM,0.944
same,relative viability,PC-14; first compound 0.1265 µM,0.957
same,relative viability,PC-14; first compound 0.4 µM,0.937
same,relative viability,PC-14; first compound 1.265 µM,0.672
same,relative viability,PC-14; first compound 4 µM,0.303
